Results from patent publication US8802597B2, “Herbicidal pyrimidines” (E I du Pont de Nemours and Company, priority 2003, dated 2014).

What was measured:
Type in all cases: in vivo
[1] = test system: chickweed (Stellaria media); assay: Test C postemergence; settings: for Chickweed plant response rating: scale 0 to 100 (0 no effect, 100 complete control); for Plant response rating, Chickweed: scale 0 to 100
Method in brief: (§1)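 Pre: seeds planted, sprayed same day. Post: 1- to 4-leaf plants (2–18 cm). Formulation: non-phytotoxic solvent + surfactant. Greenhouse 12–14 d; visual % control vs untreated, 0–100.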

[2] = test system: common ragweed (Ambrosia elatior); assay: Test C pre/postemergence; settings: for Ragweed plant response rating: scale 0 to 100 (0 no effect, 100 complete control)
Method in brief: as §1

[3] = test system: pigweed (Amaranthus retroflexus); assay: Test C pre/postemergence; settings: for Pigweed plant response rating: scale 0 to 100 (0 no effect, 100 complete control)
Method in brief: as §1

[4] = test system: giant foxtail (Setaria faberii); assay: Test C pre/postemergence; settings: for Foxtail, Giant plant response rating: scale 0 to 100 (0 no effect, 100 complete control)
Method in brief: as §1

[5] = test system: yellow nutsedge (Cyperus esculentus); assay: Test C pre/postemergence; settings: for Nutsedge, Yellow plant response rating: scale 0 to 100 (0 no effect, 100 complete control)
Method in brief: as §1

[6] = test system: Surinam grass (Brachiaria decumbens); assay: Test C pre/postemergence; settings: for Surinam Grass plant response rating: scale 0 to 100 (0 no effect, 100 complete control)
Method in brief: as §1

[7] = test system: johnsongrass (Sorghum halepense); assay: Test C pre/postemergence
Method in brief: as §1

[8] = test system: woolly cupgrass (Eriochloa villosa); assay: Test C pre/postemergence; settings: for Cupgrass, Woolly plant response rating: scale 0 to 100 (0 no effect, 100 complete control)
Method in brief: as §1

soybean (Glycine max) = assay: Test C pre/postemergence; settings: for Soybean plant response rating: scale 0 to 100 (0 no effect, 100 complete control)
Method in brief: as §1

[9] = test system: common (oilseed) sunflower (Helianthus annuus); assay: Test C pre/postemergence; settings: Preemergence
Method in brief: as §1

[10] = test system: morningglory (Ipomoea coccinea); assay: Test C pre/postemergence; settings: for Morningglory plant response rating: scale 0 to 100 (0 no effect, 100 complete control)
Method in brief: as §1

kochia (Kochia scoparia) = assay: Test C pre/postemergence; settings: for Kochia plant response rating: scale 0 to 100 (0 no effect, 100 complete control)
Method in brief: as §1

[11] = Postemergence, 250 g ai/ha, scale 0 to 100
[12] = Postemergence, 500 g ai/ha, scale 0 to 100
[13] = Preemergence, 62 g ai/ha, scale 0 to 100, 0 no effect, 100 complete control
[14] = Preemergence, 125 g ai/ha, scale 0 to 100
[15] = Preemergence, 250 g ai/ha, scale 0 to 100
[16] = Preemergence, 500 g ai/ha, scale 0 to 100

SMILES: CNN=Cc1nc(C2CC2)nc(N)c1Br [Compound 49]
- Chickweed plant response rating ([1]; 62 g ai/ha): 0
- Chickweed plant response rating ([1]; 125 g ai/ha): 0
- Plant response rating, Chickweed ([1]; 250 g ai/ha): 40
- Plant response rating, Chickweed ([1]; 500 g ai/ha): 45
- Ragweed plant response rating ([2]; Postemergence, 62 g ai/ha): 45
- Ragweed plant response rating ([2]; Postemergence, 125 g ai/ha): 65
- Plant response rating, Ragweed [2, 11]: 75
- Plant response rating, Ragweed [2, 12]: 90
- Plant response rating, Ragweed [2, 13]: 70
- Plant response rating, Ragweed [2, 14]: 100
- Plant response rating, Ragweed [2, 15]: 100
- Plant response rating, Ragweed [2, 16]: 100
- Pigweed plant response rating ([3]; Postemergence, 62 g ai/ha): 65
- Pigweed plant response rating ([3]; Postemergence, 125 g ai/ha): 80
- Plant response rating, Pigweed [3, 11]: 95
- Plant response rating, Pigweed [3, 12]: 95
- Plant response rating, Pigweed [3, 13]: 85
- Plant response rating, Pigweed [3, 14]: 90
- Plant response rating, Pigweed [3, 15]: 100
- Plant response rating, Pigweed [3, 16]: 100
- Foxtail, Giant plant response rating ([4]; Postemergence, 62 g ai/ha): 0
- Foxtail, Giant plant response rating ([4]; Postemergence, 125 g ai/ha): 0
- Plant response rating, Foxtail, Giant [4, 11]: 0
- Plant response rating, Foxtail, Giant [4, 12]: 0
- Plant response rating, Foxtail, Giant [4, 13]: 0
- Plant response rating, Foxtail, Giant [4, 14]: 0
- Plant response rating, Foxtail, Giant [4, 15]: 0
- Plant response rating, Foxtail, Giant [4, 16]: 65
- Nutsedge, Yellow plant response rating ([5]; Postemergence, 62 g ai/ha): 0
- Nutsedge, Yellow plant response rating ([5]; Postemergence, 125 g ai/ha): 0
- Plant response rating, Nutsedge, Yellow [5, 11]: 0
- Plant response rating, Nutsedge, Yellow [5, 12]: 0
- Plant response rating, Nutsedge, Yellow [5, 13]: 0
- Plant response rating, Nutsedge, Yellow [5, 14]: 0
- Plant response rating, Nutsedge, Yellow [5, 15]: 0
- Plant response rating, Nutsedge, Yellow [5, 16]: 0
- Surinam Grass plant response rating ([6]; Postemergence, 62 g ai/ha): 0
- Surinam Grass plant response rating ([6]; Postemergence, 125 g ai/ha): 0
- Plant response rating, Surinam Grass [6, 11]: 40
- Plant response rating, Surinam Grass [6, 12]: 45
- Plant response rating, Surinam Grass [6, 13]: 0
- Plant response rating, Surinam Grass [6, 14]: 15
- Plant response rating, Surinam Grass [6, 15]: 40
- Plant response rating, Surinam Grass [6, 16]: 65
- Johnsongrass plant response rating ([7]; Postemergence, 125 g ai/ha, scale 0 to 100 (0 no effect, 100 complete control)): 20
- Plant response rating, Johnsongrass [7, 11]: 35
- Plant response rating, Johnsongrass [7, 12]: 70
- Plant response rating, Johnsongrass [7, 13]: 45
- Plant response rating, Johnsongrass [7, 14]: 65
- Plant response rating, Johnsongrass [7, 15]: 80
- Plant response rating, Johnsongrass [7, 16]: 85
- Cupgrass, Woolly plant response rating ([8]; Postemergence, 62 g ai/ha): 0
- Cupgrass, Woolly plant response rating ([8]; Postemergence, 125 g ai/ha): 15
- Plant response rating, Cupgrass, Woolly [8, 11]: 60
- Plant response rating, Cupgrass, Woolly [8, 12]: 65
- Plant response rating, Cupgrass, Woolly [8, 13]: 0
- Plant response rating, Cupgrass, Woolly [8, 14]: 0
- Plant response rating, Cupgrass, Woolly [8, 15]: 20
- Plant response rating, Cupgrass, Woolly [8, 16]: 25
- Soybean plant response rating (soybean (Glycine max); Postemergence, 62 g ai/ha): 95
- Soybean plant response rating (soybean (Glycine max); Postemergence, 125 g ai/ha): 95
- Plant response rating, Soybean (soybean (Glycine max); [11]): 95
- Plant response rating, Soybean (soybean (Glycine max); [12]): 100
- Plant response rating, Soybean (soybean (Glycine max); [13]): 0
- Plant response rating, Soybean (soybean (Glycine max); [14]): 70
- Plant response rating, Soybean (soybean (Glycine max); [15]): 90
- Plant response rating, Soybean (soybean (Glycine max); [16]): 90
- Plant response rating, Sunflower ([9]; 62 g ai/ha, scale 0 to 100, 0 no effect, 100 complete control): 15
- Plant response rating, Sunflower ([9]; 125 g ai/ha, scale 0 to 100): 75
- Plant response rating, Sunflower ([9]; 250 g ai/ha, scale 0 to 100): 100
- Plant response rating, Sunflower ([9]; 500 g ai/ha, scale 0 to 100): 100
- Morningglory plant response rating ([10]; Postemergence, 62 g ai/ha): 50
- Morningglory plant response rating ([10]; Postemergence, 125 g ai/ha): 70
- Plant response rating, Morningglory [10, 11]: 80
- Plant response rating, Morningglory [10, 12]: 100
- Plant response rating, Morningglory [10, 13]: 90
- Plant response rating, Morningglory [10, 14]: 95
- Plant response rating, Morningglory [10, 15]: 100
- Plant response rating, Morningglory [10, 16]: 100
- Kochia plant response rating (kochia (Kochia scoparia); Postemergence, 62 g ai/ha): 20
- Kochia plant response rating (kochia (Kochia scoparia); Postemergence, 125 g ai/ha): 45
- Plant response rating, Kochia (kochia (Kochia scoparia); [11]): 95
- Plant response rating, Kochia (kochia (Kochia scoparia); [12]): 100
- Plant response rating, Kochia (kochia (Kochia scoparia); [13]): 100
- Plant response rating, Kochia (kochia (Kochia scoparia); [14]): 100
- Plant response rating, Kochia (kochia (Kochia scoparia); [15]): 100
- Plant response rating, Kochia (kochia (Kochia scoparia); [16]): 100
